Laboratory results: the CheMixHub ionic liquid set

Assay: xn = mol fraction of the nth substance listed
Conditions: for viscosity: 100 kPa; for electrical conductivity: 101.3 kPa

CCCCCC[n+]1ccn(C)c1.[Cl-] + O
Conditions	electrical conductivity [S/m]	viscosity [mPa·s]
278.15 K, x1 = 8.613e-05	–	1.531
278.15 K, x1 = 0.0001839	–	1.539
278.15 K, x1 = 0.0003576	–	1.551
278.15 K, x1 = 0.0005405	–	1.562
278.15 K, x1 = 0.000744	–	1.573
278.15 K, x1 = 0.0009399	–	1.585
278.15 K, x1 = 0.001103	–	1.596
278.15 K, x1 = 0.001379	–	1.613
278.15 K, x1 = 0.001677	–	1.641
283.15 K, x1 = 8.613e-05	–	1.314
283.15 K, x1 = 0.0001839	–	1.32
283.15 K, x1 = 0.0003576	–	1.329
283.15 K, x1 = 0.0005405	–	1.337
283.15 K, x1 = 0.000744	–	1.348
283.15 K, x1 = 0.0009399	–	1.358
283.15 K, x1 = 0.001103	–	1.369
283.15 K, x1 = 0.001379	–	1.381
283.15 K, x1 = 0.001677	–	1.401
288.15 K, x1 = 8.613e-05	–	1.145
288.15 K, x1 = 0.0001839	–	1.15
288.15 K, x1 = 0.0003576	–	1.158
288.15 K, x1 = 0.0005405	–	1.166
288.15 K, x1 = 0.000744	–	1.174
288.15 K, x1 = 0.0009399	–	1.181
288.15 K, x1 = 0.001103	–	1.188
288.15 K, x1 = 0.001379	–	1.2
288.15 K, x1 = 0.001677	–	1.219
293.15 K, x1 = 8.613e-05	–	1.008
293.15 K, x1 = 0.0001839	–	1.013
293.15 K, x1 = 0.0003576	–	1.019
293.15 K, x1 = 0.0005405	–	1.025
293.15 K, x1 = 0.000744	–	1.033
293.15 K, x1 = 0.0009399	–	1.039
293.15 K, x1 = 0.001103	–	1.044
293.15 K, x1 = 0.001379	–	1.054
293.15 K, x1 = 0.001677	–	1.069
298.15 K, x1 = 4.23e-06	0.00276	–
298.15 K, x1 = 7.11e-06	0.00451	–
298.15 K, x1 = 1.01e-05	0.00631	–
298.15 K, x1 = 1.293e-05	0.008	–
298.15 K, x1 = 1.551e-05	0.00953	–
298.15 K, x1 = 1.836e-05	0.01121	–
298.15 K, x1 = 2.116e-05	0.0129	–
298.15 K, x1 = 2.393e-05	0.0145	–
298.15 K, x1 = 2.652e-05	0.016	–
298.15 K, x1 = 2.919e-05	0.0175	–
298.15 K, x1 = 0.0001839	–	0.899
298.15 K, x1 = 0.0003576	–	0.905
298.15 K, x1 = 0.0005405	–	0.911
298.15 K, x1 = 0.000744	–	0.917
298.15 K, x1 = 0.0009399	–	0.922
298.15 K, x1 = 0.001103	–	0.928
298.15 K, x1 = 0.001379	–	0.936
298.15 K, x1 = 0.001677	–	0.949
303.15 K, x1 = 8.613e-05	–	0.802
303.15 K, x1 = 0.0001839	–	0.805
303.15 K, x1 = 0.0003576	–	0.81
303.15 K, x1 = 0.0005405	–	0.815
303.15 K, x1 = 0.000744	–	0.82
303.15 K, x1 = 0.0009399	–	0.825
303.15 K, x1 = 0.001103	–	0.829
303.15 K, x1 = 0.001379	–	0.836
303.15 K, x1 = 0.001677	–	0.847
308.15 K, x1 = 8.613e-05	–	0.723
308.15 K, x1 = 0.0001839	–	0.726
308.15 K, x1 = 0.0003576	–	0.73
308.15 K, x1 = 0.0005405	–	0.734
308.15 K, x1 = 0.000744	–	0.739
308.15 K, x1 = 0.0009399	–	0.743
308.15 K, x1 = 0.001103	–	0.747
308.15 K, x1 = 0.001379	–	0.753
308.15 K, x1 = 0.001677	–	0.762
313.15 K, x1 = 8.613e-05	–	0.656
313.15 K, x1 = 0.0001839	–	0.659
313.15 K, x1 = 0.0003576	–	0.662
313.15 K, x1 = 0.0005405	–	0.666
313.15 K, x1 = 0.000744	–	0.67
313.15 K, x1 = 0.0009399	–	0.673
313.15 K, x1 = 0.001103	–	0.677
313.15 K, x1 = 0.001379	–	0.683
313.15 K, x1 = 0.001677	–	0.691
